In publication PMC11173485, “Connecting GSK-3β Inhibitory Activity with IKK-β or ROCK-1 Inhibition to Target Tau Aggregation and Neuroinflammation in Alzheimer’s Disease—Discovery, In Vitro and In Cellulo Activity of Thiazole-Based Inhibitors” (Molecules, 2024):
Like-named read-outs stand apart in the source and are kept apart here.

Key:
[1] = target: T1, ROCK-1 (Homo sapiens, UniProt Q13464); assay: ADP-Glo kinase assay, ROCK-1 inhibition; type: biochemical; conditions: for inhibition at 10 µM: mean ± SD, read-out: % inh. at 10 µM ROCK-1
T1 construct: purchased Promega
T1 sequence (Q13464 whole entry): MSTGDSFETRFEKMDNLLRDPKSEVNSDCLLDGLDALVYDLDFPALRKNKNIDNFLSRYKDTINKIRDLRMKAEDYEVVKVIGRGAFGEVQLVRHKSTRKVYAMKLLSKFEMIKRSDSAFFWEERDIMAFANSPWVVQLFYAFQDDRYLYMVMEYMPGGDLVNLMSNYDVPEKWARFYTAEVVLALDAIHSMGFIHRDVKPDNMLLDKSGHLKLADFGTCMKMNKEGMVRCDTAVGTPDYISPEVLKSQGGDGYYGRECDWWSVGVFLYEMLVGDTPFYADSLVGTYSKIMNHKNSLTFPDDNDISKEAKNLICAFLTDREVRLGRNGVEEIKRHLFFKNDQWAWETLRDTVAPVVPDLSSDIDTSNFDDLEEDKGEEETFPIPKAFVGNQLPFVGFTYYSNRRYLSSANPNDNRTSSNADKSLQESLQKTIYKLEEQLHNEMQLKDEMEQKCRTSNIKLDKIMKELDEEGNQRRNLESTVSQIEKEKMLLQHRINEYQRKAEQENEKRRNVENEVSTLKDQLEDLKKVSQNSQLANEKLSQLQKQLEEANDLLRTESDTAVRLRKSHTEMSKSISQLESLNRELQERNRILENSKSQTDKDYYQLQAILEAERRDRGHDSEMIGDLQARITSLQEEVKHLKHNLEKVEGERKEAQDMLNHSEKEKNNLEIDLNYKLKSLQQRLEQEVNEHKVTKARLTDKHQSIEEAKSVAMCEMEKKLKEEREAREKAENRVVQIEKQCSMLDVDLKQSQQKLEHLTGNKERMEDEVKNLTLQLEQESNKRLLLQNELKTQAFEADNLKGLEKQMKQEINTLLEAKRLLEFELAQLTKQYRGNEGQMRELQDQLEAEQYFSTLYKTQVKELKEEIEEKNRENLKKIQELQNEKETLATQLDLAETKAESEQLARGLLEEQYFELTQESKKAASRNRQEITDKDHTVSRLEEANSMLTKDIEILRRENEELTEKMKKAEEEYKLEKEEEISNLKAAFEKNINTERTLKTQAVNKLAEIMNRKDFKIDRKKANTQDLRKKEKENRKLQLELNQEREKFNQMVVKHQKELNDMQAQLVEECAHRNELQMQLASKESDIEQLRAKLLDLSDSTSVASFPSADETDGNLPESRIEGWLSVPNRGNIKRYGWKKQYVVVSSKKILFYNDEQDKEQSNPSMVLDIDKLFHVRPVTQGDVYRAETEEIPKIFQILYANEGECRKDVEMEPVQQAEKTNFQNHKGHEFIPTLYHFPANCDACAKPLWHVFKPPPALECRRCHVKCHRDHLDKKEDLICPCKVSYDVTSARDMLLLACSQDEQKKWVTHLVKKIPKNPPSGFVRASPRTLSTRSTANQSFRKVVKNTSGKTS
Excerpt: We evaluated the inhibitory activity of the final compounds against GSK-3β, IKK-β, and ROCK-1 kinases using the commercially available ADP-Glo™ kinase assay. The method was based on the measurement of luminescence that correlates with kinase activity. […] The latter are inhibitors of the kinases of interest and were integral to the design of our studies.
Promega’s Kinase Enzyme Systems (Promega; Madison, WI, USA) were used to determine the activities of the tested compounds against the human recombinant kinases GSK-3β, IKK- β, and ROCK-1. The assays were performed according to the provided manufacturer’s instruction, based on the optimized conditions of the enzymatic reactions, using the low-volume, white polystyrene, 384-well plates. The ADP-Glo™ Assay (Promega; Madison, WI, USA) was used for bioluminescent detection of the kinase activity. Stock solutions of the tested compounds in DMSO (1mM) were diluted with the Kinase Assay Buffer before use (40 mM Tris, pH 7.5, enriched with 50 µM dithiothreitol; DTT), giving the final desired concentrations. The kinase enzymes, substrates, and ATP solutions were also diluted with the assay buffer prior to use. The GSK-3β, IKK-β, and ROCK-1 substrates were derived from human muscle glycogen synthase 1, human IkBA, and human 40S ribosomal protein S6, respectively. […] The DMSO solution (1% in well) was used in the blank samples instead of the tested inhibitors. After the incubation period, ATP (25 µM per well in the case of GSK-3β and IKK-β kinases; 5 µM per well in the case of ROCK-1 kinase) and an appropriate enzyme substrate (0.2 µg/µL in well) were added to start the enzymatic reaction. The reaction mixture was kept at room temperature for 1 h; then, the ADP-Glo™ reagent was added, to terminate the kinase reaction and deplete any remaining ATP. After 40 min, a second reagent (Kinase Detection Reagent) was applied to convert the obtained ADP to ATP and to generate light from the newly synthesized ATP using a luciferase/luciferin reaction. The mixture was incubated for another 30 min at room temperature before the luminescence was measured. The calculations of the percent of kinases’ inhibition by tested compounds were based on the equation 100 − (S/B) × 100; S and B are the enzyme activities with and without the tested sample, respectively. […]. IC50 results were obtained using nonlinear regression (GraphPad Prism 9; GraphPad Software, San Diego, CA, USA) by plotting the residual enzyme activities against the applied inhibitor concentration. Each compound was evaluated in two independent experiments, with every data point collected in duplicate.

[2] = Cytotoxicity, PrestoBlue cell viability assay in HT-22 cells; type: cell-based, mouse; conditions: mouse, HT-22 hippocampal neuronal cells, 24 h; for viability at 24 h, 1 µM: 1 µM (log C -6); for viability at 24 h, 1 µM / viability at 24 h, 10 µM / viability at 24 h, 50 µM / viability at 24 h, 100 µM / viability at 24 h, 0.1 µM: read-out: neurotoxicity in HT-22 cells, % of cell viability; for viability at 24 h, 10 µM: 10 µM (log C -5); for viability at 24 h, 50 µM: 50 µM (log C -4.3); for viability at 24 h, 100 µM: 100 µM (log C -4); for IC50 at 24 h: PrestoBlue, mean ± SEM, read-out: Cytotoxicity in HT-22 Cells (IC50 x¯ ± SEM µM)
Procedure: (§1) We assessed their cytotoxic effects at five concentrations (0.1, 1, 10, 50, and 100 µM) in HT-22 (mouse hippocampal neuronal cells) and BV-2 (mouse microglial cells) cell lines using a fluorometric assay with PrestoBlue™ cell viability reagent (Table 4, Table S2 in the SI).
(§2) Mouse microglial cells (BV-2) were a generous gift from Professor Bozena Kaminska-Kaczmarek of the Laboratory of Molecular Neurobiology, Neurobiology Center, Nencki Institute of Experimental Biology, Polish Academy of Sciences, Warsaw, Poland. Cells were cultured in Dulbecco’s modified Eagle’s Medium-high glucose (DMEM, Glutamx Thermo Fisher, Waltham, MA, USA) supplemented with 10% inactivated fetal bovine serum (Thermo Fisher), 100 IU/mL penicillin (Merck), and 100 µg/mL streptomycin (Merck). Cells were cultured in flasks (area 175 cm^2, Nunc) and incubated at 37 °C, 5% CO2. To evaluate the level of NO, IL-6, and TNF-α and the effectiveness of the compounds tested, BV-2 microglia cells were cultured in 96-well culture plates (5 × 10^4 cells per well, Falcon). For the measurement of cell viability and cell membrane damage, cells were placed in 96-well culture plates (2 × 10^4 cells per well, Falcon). Before the tests, cells were grown for 24 h in the incubator (37 °C, 5% CO2). Mouse Hippocampal Neuronal Cell Line (HT-22) was a generous gift from Dr Bartosz Pomierny of the Department of Biochemical Toxicology, Jagiellonian University Medical College, Krakow, Poland. Cells were cultured in Dulbecco’s modified Eagle’s Medium-high glucose (DMEM, Glutamx Thermo Fisher) supplemented with 10% inactivated fetal bovine serum (Thermo Fisher), 100 IU/mL penicillin (Merck), and 100 µg/mL streptomycin (Merck). Cells were cultured in flasks (area 175 cm^2, Nunc) and incubated at 37 °C, 5% CO2. For the measurement of cell viability and neuroprotective effects against okadaic acid, cells were placed in 96-well culture plates (2 × 10^4 cells per well, Falcon). Before the tests, cells were grown for 24 h in the incubator (37 °C, 5% CO2).
(§3) Cell viability was evaluated using the PrestoBlue reagent (Thermo Fisher), according to the manufacturer’s procedures. Following 24 h of incubation with the tested molecule, PrestoBlue reagent was added to a microplate well in an amount equal to one-tenth of the remaining medium volume. The resulting mixture was incubated for 15 min at 37 °C, and the fluorescence intensity (EX 530; EM 580 nm) was measured using the plate reader POLARstar Omega, (BMG Labtech, Ortenberg, Germany). The results (viability values) are provided as a percentage of live cells with respect to DMSO (control sample).
(§4) Cytotoxic effects of selected inhibitors in HT-22 mouse hippocampal neuronal cells and BV-2 mouse microglial cells
(§5) Table S2. Cytotoxic effects of selected inhibitors in HT-22 mouse hippocampal neuronal cells and BV-2 mouse microglial cells. neurotoxicity in HT-22 cellsa immunotoxicity in BV-2 cellsa […]
(§6) a % of cell viability at the given concentration of tested compound; mean value ± standard deviation (SD) of triplicates; b half maximal inhibitory concentration of the tested compound; mean value ± standard error of the mean (SEM) of triplicates; c data obtained in log C of 39 of -8.5; -7.5; -6.5; -5.5; -5, respectively; d data obtained in log C of 49 of -7.5; -6.5; -5.5; -4.5; -4. respectively; nt, not tested.

[3] = tested on: HT-22 (mouse hippocampal neuronal cells); assay: as above; type: cell-based; conditions: for effect on cell viability in HT-22 cells (in words): 0.1, 1, 10, 50, and 100 µM
Procedure: as §1, §2, §3, §4, §5, §6

[4] = Cytotoxicity, PrestoBlue cell viability assay in BV-2 cells; type: cell-based, mouse; conditions: mouse, BV-2 microglial cells; for viability at 24 h, 1 µM: 1 µM (log C -6); for viability at 24 h, 50 µM: 50 µM (log C -4.3); for viability at 24 h, 100 µM: 100 µM (log C -4); for IC50 at 24 h: PrestoBlue, mean ± SEM, read-out: Cytotoxicity in BV-2 Cells (IC50 x¯ ± SEM µM)
Procedure: as §1, §2, §3, §4, §5, §6

[5] = tested on: BV-2 (mouse microglial cells); assay: as above; type: cell-based; conditions: for effect on cell viability in BV-2 cells (in words): 0.1, 1, 10, 50, and 100 µM
Procedure: as §1, §2, §3, §4, §5, §6

[6] = 24 h, read-out: immunotoxicity in BV-2 cells, % of cell viability
[7] = 10 µM (log C -5), 24 h, read-out: immunotoxicity in BV-2 cells, % of cell viability

In the case of CC1(C)NC(=O)c2sc(-c3ccnc(NC(=O)C4CC4)c3)cc2N1 [Compound 40, N-(4-(2,2-Dimethyl-4-oxo-1,2,3,4-tetrahydrothieno [3,2-d]pyrimidin-6-yl)pyridin-2-yl)-cyclopropanecarboxamide], the IC50 ([1]; mean ± SEM, ATP 5 µM) is reported as 1.76 ± 0.109 µM, the viability at 24 h, 1 µM [2] is reported as 105% and the viability at 24 h, 10 µM [2] is reported as 71%. The viability at 24 h, 50 µM [2] was 28%, the viability at 24 h, 100 µM [2] was 21% and the IC50 at 24 h [2] was 19.9 ± 4.1 µM. The viability at 24 h, 0.1 µM [2] was 100%, the “effect on cell viability in HT-22 cells (in words)” value (from here on “effect … in HT-22 cells (in words)”) [3] was “decreased cells’ viability” and the viability at 24 h, 1 µM [4, 6] was 109%. The viability at 24 h, 10 µM [4, 7] was 9%, the viability at 24 h, 50 µM [4, 6] was 2% and the viability at 24 h, 100 µM [4, 6] was 2%. For the same compound, the IC50 at 24 h ([4]; 24 h) was 3.6 ± 0.7 µM, the viability at 24 h, 0.1 µM [4, 6] was 106% and the “effect on cell viability in BV-2 cells (in words)” value (from here on “effect … in BV-2 cells (in words)”) [5] was “decreased cells’ viability”.
With CC(C)C(=O)Nc1cc(-c2cc3c(s2)C(=O)NC(C)(C)N3)ccn1 [Compound 39, N-(4-(2,2-Dimethyl-4-oxo-1,2,3,4-tetrahydrothieno [3,2-d]pyrimidin-6-yl)pyridin-2-yl)isobutyramide] the inhibition at 10 µM [1] was 32%, the viability at 24 h, 1 µM [2] was 84% and the viability at 24 h, 10 µM [2] was 55%. For the same compound, the viability at 24 h, 50 µM [2] was 35%, the viability at 24 h, 100 µM [2] was 29% and the IC50 at 24 h [2] was 8.4 ± 5.3 µM. The viability at 24 h, 0.1 µM [2] was 91%, the “effect … in HT-22 cells (in words)” value [3] was “decreased cells’ viability” and the viability at 24 h, 10 µM ([4]; log C -5 (footnote c; printed in column 100 µM), read-out: immunotoxicity in BV-2 cells, % of cell viability) was 14%. The viability at 24 h, 3.16 µM ([4]; log C -5.5 (footnote c; printed in column 50 µM), read-out: immunotoxicity in BV-2 cells, % of cell viability) was 73%, the viability at 24 h, 0.316 µM ([4]; log C -6.5 (footnote c; printed in column 10 µM), read-out: immunotoxicity in BV-2 cells, % of cell viability) was 105% and the IC50 at 24 h ([4]; 24 h) was 4.5 ± 1.9 µM. For the same compound, the “effect … in BV-2 cells (in words)” value [5] was “decreased cells’ viability”.
CC(C)C(=O)Nc1cc(-c2cc(NC(N)=O)c(C(N)=O)s2)ccn1 [Compound 48, 5-(2-Isobutyramidopyridin-4-yl)-3-ureidothiophene-2-carboxamide] showed an inhibition at 10 µM [1] of under 10%, a viability at 24 h, 1 µM [2] of 89% and a viability at 24 h, 10 µM [2] of 77%. The viability at 24 h, 50 µM [2] was 52%, the IC50 at 24 h [2] was 36.6 ± 4.3 µM and the viability at 24 h, 0.1 µM [2] was 92%. For the same compound, the “effect … in HT-22 cells (in words)” value [3] was “decreased cells’ viability”, the viability at 24 h, 1 µM [4, 6] was 97% and the viability at 24 h, 10 µM [4, 7] was 66%. For the same compound, the viability at 24 h, 50 µM [4, 6] was 20%, the IC50 at 24 h ([4]; 24 h) was 21.8 ± 3.8 µM and the viability at 24 h, 0.1 µM [4, 6] was 103%. For the same compound, the “effect … in BV-2 cells (in words)” value [5] was “decreased cells’ viability”.
For O=C1NC2(CCOC2)Nc2cc(-c3ccnc(NC(=O)C4CC4)c3)sc21 (centres unmarked) [Compound 62, N-(4-(4′-Oxo-3′,4,4′,5-tetrahydro-1′H,2H-spiro[furan-3,2′-thieno [3,2-d]pyrimidin]-6′-yl)pyridin-2-yl)cyclopropanecarboxamide], the IC50 [1] was 2.3 µM, the IC50 ([1]; mean ± SEM, ATP 5 µM) was 2.31 ± 0.131 µM and the viability at 24 h, 1 µM [2] was 108%. For the same compound, the viability at 24 h, 10 µM [2] was 105%, the viability at 24 h, 50 µM [2] was 35% and the viability at 24 h, 100 µM [2] was 29%. The IC50 at 24 h [2] was 58.3 ± 10 µM, the viability at 24 h, 0.1 µM [2] was 106% and the “effect … in HT-22 cells (in words)” value [3] was “decreased cells’ viability”. The “effect on viability of HT-22 cells at concentrations up to 10 µM (in words)” value ([3]; up to 10 µM) was “did not decrease the viability of the cells”, the viability at 24 h, 1 µM [4, 6] was 106% and the viability at 24 h, 10 µM [4, 7] was 105%. It also gave a viability at 24 h, 50 µM [4, 6] of 5%, a viability at 24 h, 100 µM [4, 6] of 2% and an IC50 at 24 h ([4]; 24 h) of 54.8 ± 1.9 µM. The viability at 24 h, 0.1 µM [4, 6] was 105%, the “effect … in BV-2 cells (in words)” value [5] was “decreased cells’ viability” and the “effect on viability of BV-2 cells at concentrations up to 10 µM (in words)” value ([5]; up to 10 µM) was “did not decrease the viability of the cells”.
